Results as given in patent publication US20080171159A1, “METHOD FOR STORING A DRUG-LOADED SUPPORT” (priority 2007, published 2008).

Experiment: Vapor pressure at 25° C. by the Donovan method (gas chromatography)
Format: physicochemical
Method: The pyrethroid compound volatile at ambient temperature used in the present invention (hereinafter referred to as “the present active ingredient”) is a pyrethroid compound with a vapor pressure of about 6×10^−6 to about 1×10^−4 mm Hg at 25° C. when measured, for instance, by the method reported by Stephen F. Donovan (New method for estimating vapor pressure by use of gas chromatography, Journal of Chromatography A. 749(1996) 123-129, hereinafter referred to as “Donovan method”) and an ester compound represented by formula (I)
Specific examples of the present active ingredient are 2,3,5,6-tetrafluoro-4-methylbenzyl 3-(1-propenyl)-2,2-dimethylcyclopropanecarboxylate (7.7×10^−5 mm Hg), 2,3,5,6-tetrafluoro-4-methylbenzyl 3-(2-methyl-1-propenyl)-2,2-dimethylcyclopropanecarboxylate(3.1×10^−5 mm Hg), 2,3,5,6-tetrafluorobenzyl 3-(2,2-dichlorovinyl)-2,2-dimethylcyclopropanecarboxylate (2.6×10^−5 mm Hg), 2,3,5,6-tetrafluoro-4-methoxymethylbenzyl 3-(1-propenyl)-2,2-dimethylcyclopropanecarboxylate(1.4×10^-5 mm Hg), and 2,3,5,6-tetrafluoro-4-methoxymethylbenzyl 3-(2-methyl-1-propenyl)-2,2-dimethylcyclopropanecarboxylate(6.8×10^−6 mm Hg).

SMILES | vapor pressure
CC=CC1C(C(=O)OCc2c(F)c(F)c(COC)c(F)c2F)C1(C)C (centres unmarked) [2,3,5,6-tetrafluoro-4-methoxymethylbenzyl 3-(1-propenyl)-2,2-dimethylcyclopropanecarboxylate] | 1.4×10^-5 mm Hg
CC1(C)C(C=C(Cl)Cl)C1C(=O)OCc1c(F)c(F)cc(F)c1F (centres unmarked) [2,3,5,6-tetrafluorobenzyl 3-(2,2-dichlorovinyl)-2,2-dimethylcyclopropanecarboxylate] | 2.6×10^−5 mm Hg
CC(C)=CC1C(C(=O)OCc2c(F)c(F)c(C)c(F)c2F)C1(C)C (centres unmarked) [2,3,5,6-tetrafluoro-4-methylbenzyl 3-(2-methyl-1-propenyl)-2,2-dimethylcyclopropanecarboxylate] | 3.1×10^−5 mm Hg
COCc1c(F)c(F)c(COC(=O)C2C(C=C(C)C)C2(C)C)c(F)c1F (centres unmarked) [2,3,5,6-tetrafluoro-4-methoxymethylbenzyl 3-(2-methyl-1-propenyl)-2,2-dimethylcyclopropanecarboxylate] | 6.8×10^−6 mm Hg
CC=CC1C(C(=O)OCc2c(F)c(F)c(C)c(F)c2F)C1(C)C (centres unmarked) [2,3,5,6-tetrafluoro-4-methylbenzyl 3-(1-propenyl)-2,2-dimethylcyclopropanecarboxylate] | 7.7×10^−5 mm Hg
